# Tested on: syngenic and metallothionein-SSAT mice
# Test: Hepatic, pancreatic and renal polyamine concentration in syngenic and metallothionein-SSAT mice after analogue
# Assay type: in vivo, mouse
# Conditions: Sg mice, 24 h
# Procedure: α-methylspermidine, Bis-α-methylspermine and α-methylspermine were administered in saline. […] The data are expressed as means ±S.D. For statistical analysis, the two-tailed Student's t test was used.
structure (smiles),measurement,setting,value
"CC(N)CCNCCCCN (stereo not drawn) [α-methylspermidine, 1-methylspermidine]",hepatic N^1-Acetyl-spermidine,50 mg/kg,21.45 pmoles/mg tissue wet weight
same,hepatic Spermidine,50 mg/kg,1018.24 pmoles/mg tissue wet weight
same,hepatic Spermine,50 mg/kg,864.34 ± 90.79 ^++ pmoles/mg tissue wet weight
same,hepatic α-Methyl-spermidine,50 mg/kg,394.01 pmoles/mg tissue wet weight
same,pancreatic Putrescine,50 mg/kg,2.82 pmoles/mg tissue wet weight
same,pancreatic Spermidine,50 mg/kg,6597.75 ± 1034.98 ^+ pmoles/mg tissue wet weight
same,pancreatic Spermine,50 mg/kg,911.15 pmoles/mg tissue wet weight
same,renal N^1-Acetylspermidine,50 mg/kg,36.67 pmoles/mg tissue wet weight
same,renal Putrescine,50 mg/kg,45.91 pmoles/mg tissue wet weight
same,renal Spermidine,50 mg/kg,315.36 ± 46.18 ^+ pmoles/mg tissue wet weight
same,renal Spermine,50 mg/kg,856.32 ± 68.27 pmoles/mg tissue wet weight
same,renal α-Methylspermidine,50 mg/kg,122.64 pmoles/mg tissue wet weight
same,hepatic N^1-Acetyl-spermidine,100 mg/kg,12.90 pmoles/mg tissue wet weight
same,hepatic Putrescine,100 mg/kg,15.36 pmoles/mg tissue wet weight
same,hepatic Spermidine,100 mg/kg,729.82 pmoles/mg tissue wet weight
same,hepatic Spermine,100 mg/kg,892.64 ± 79.24 ^++ pmoles/mg tissue wet weight
same,hepatic α-Methyl-spermidine,100 mg/kg,461.44 pmoles/mg tissue wet weight
same,pancreatic N^1-Acetyl-spermidine,100 mg/kg,66.33 pmoles/mg tissue wet weight
same,pancreatic Spermidine,100 mg/kg,6089.81 ± 1039.94 ^++ pmoles/mg tissue wet weight
same,pancreatic Spermine,100 mg/kg,815.33 pmoles/mg tissue wet weight
same,renal N^1-Acetylspermidine,100 mg/kg,38.89 pmoles/mg tissue wet weight
same,renal Putrescine,100 mg/kg,68.97 pmoles/mg tissue wet weight
same,renal Spermidine,100 mg/kg,231.78 ± 25.15 pmoles/mg tissue wet weight
same,renal Spermine,100 mg/kg,686.21 ± 75.94 ^+ pmoles/mg tissue wet weight
same,renal α-Methylspermidine,100 mg/kg,146.37 pmoles/mg tissue wet weight
same,hepatic N^1-Acetyl-spermidine,150 mg/kg,23.35 pmoles/mg tissue wet weight
same,hepatic Spermidine,150 mg/kg,723.14 pmoles/mg tissue wet weight
same,hepatic Spermine,150 mg/kg,739.53 ± 170.40 ^+ pmoles/mg tissue wet weight
same,hepatic α-Methyl-spermidine,150 mg/kg,504.41 pmoles/mg tissue wet weight
same,pancreatic Putrescine,150 mg/kg,1.66 pmoles/mg tissue wet weight
same,pancreatic Spermidine,150 mg/kg,6345.88 ± 1026.88 ^++ pmoles/mg tissue wet weight
same,pancreatic Spermine,150 mg/kg,833.73 pmoles/mg tissue wet weight
same,renal N^1-Acetylspermidine,150 mg/kg,24.61 pmoles/mg tissue wet weight
same,renal Putrescine,150 mg/kg,65.28 pmoles/mg tissue wet weight
same,renal Spermidine,150 mg/kg,240.59 ± 28.71 pmoles/mg tissue wet weight
same,renal Spermine,150 mg/kg,635.17 ± 42.35 pmoles/mg tissue wet weight
same,renal α-Methylspermidine,150 mg/kg,175.49 pmoles/mg tissue wet weight
same,hepatic N^1-Acetyl-spermidine,250 mg/kg,18.97 pmoles/mg tissue wet weight
same,hepatic Putrescine,250 mg/kg,21.87 pmoles/mg tissue wet weight
same,hepatic Spermidine,250 mg/kg,593.49 pmoles/mg tissue wet weight
same,hepatic Spermine,250 mg/kg,854.77 ± 108.73 ^++ pmoles/mg tissue wet weight
same,hepatic α-Methyl-spermidine,250 mg/kg,763.57 pmoles/mg tissue wet weight
same,pancreatic Putrescine,250 mg/kg,158.82 pmoles/mg tissue wet weight
same,pancreatic Spermidine,250 mg/kg,4773.64 ± 838.69 ^++ pmoles/mg tissue wet weight
same,pancreatic Spermine,250 mg/kg,762.743 pmoles/mg tissue wet weight
same,pancreatic α-Methyl-spermidine,250 mg/kg,1363.02 pmoles/mg tissue wet weight
same,renal N^1-Acetylspermidine,250 mg/kg,31.10 pmoles/mg tissue wet weight
same,renal Putrescine,250 mg/kg,41.84 pmoles/mg tissue wet weight
same,renal Spermidine,250 mg/kg,225.57 ± 29.21 ^+ pmoles/mg tissue wet weight
same,renal Spermine,250 mg/kg,518.89 ± 36.68 pmoles/mg tissue wet weight
same,renal α-Methylspermidine,250 mg/kg,288.30 pmoles/mg tissue wet weight
same,hepatic N^1-Acetyl-spermidine,375 mg/kg,31.64 pmoles/mg tissue wet weight
same,hepatic Putrescine,375 mg/kg,29.37 pmoles/mg tissue wet weight
same,hepatic Spermidine,375 mg/kg,370.29 pmoles/mg tissue wet weight
same,hepatic Spermine,375 mg/kg,644.88 ± 183.36 ^+ pmoles/mg tissue wet weight
same,hepatic α-Methyl-spermidine,375 mg/kg,1095.59 pmoles/mg tissue wet weight
same,pancreatic N^1-Acetyl-spermidine,375 mg/kg,14.02 pmoles/mg tissue wet weight
same,pancreatic Putrescine,375 mg/kg,726.66 pmoles/mg tissue wet weight
same,pancreatic Spermidine,375 mg/kg,4073.3 ± 670.46^++ pmoles/mg tissue wet weight
same,pancreatic Spermine,375 mg/kg,740.93 pmoles/mg tissue wet weight
same,pancreatic α-Methyl-spermidine,375 mg/kg,1319.14 pmoles/mg tissue wet weight
same,renal N^1-Acetylspermidine,375 mg/kg,27.40 pmoles/mg tissue wet weight
same,renal Putrescine,375 mg/kg,58.59 pmoles/mg tissue wet weight
same,renal Spermidine,375 mg/kg,189.46 ± 0.98 pmoles/mg tissue wet weight
same,renal Spermine,375 mg/kg,454.49 ± 64.44 ^+ pmoles/mg tissue wet weight
same,renal α-Methylspermidine,375 mg/kg,477.31 pmoles/mg tissue wet weight
same,hepatic N^1-Acetyl-spermidine,500 mg/kg,133.00 pmoles/mg tissue wet weight
same,hepatic Putrescine,500 mg/kg,119.33 pmoles/mg tissue wet weight
same,hepatic Spermidine,500 mg/kg,273.13 pmoles/mg tissue wet weight
same,hepatic Spermine,500 mg/kg,666.13 ± 188.21 pmoles/mg tissue wet weight
same,hepatic α-Methyl-spermidine,500 mg/kg,1801.46 pmoles/mg tissue wet weight
same,pancreatic N^1-Acetyl-spermidine,500 mg/kg,10.62 pmoles/mg tissue wet weight
same,pancreatic Putrescine,500 mg/kg,812.54 pmoles/mg tissue wet weight
same,pancreatic Spermidine,500 mg/kg,3669.36 ± 1235.66 pmoles/mg tissue wet weight
same,pancreatic Spermine,500 mg/kg,652.17 pmoles/mg tissue wet weight
same,pancreatic α-Methyl-spermidine,500 mg/kg,1273.3 pmoles/mg tissue wet weight
same,renal N^1-Acetylspermidine,500 mg/kg,46.34 pmoles/mg tissue wet weight
same,renal Putrescine,500 mg/kg,789.63 pmoles/mg tissue wet weight

# Source: patent US7202280B2, “Methods for the treatment and prevention of pancreatitis and for induction of liver regeneration” (priority 2002, dated 2007)
